Values of other authors as cited in patent US10376519B2, “Tricyclic lactams for use in HSPC-sparing treatments for Rb-positive abnormal cellular proliferation” (G1 Therapeutics, Inc., priority 2014, dated 2019).

What was measured:
[1] = Grade 3/4 neutropenia and leukopenia, clinical trial studies
[2] = in vivo

CC(=O)c1c(C)c2cnc(Nc3ccc(N4CCNCC4)cn3)nc2n(C2CCCC2)c1=O [palbociclib, 6-acetyl-8-cyclopentyl-5-methyl-2-(5-piperazin-1-yl-pyridin-2-ylammino)-8H-pyrido-[2,3-d]-pyrimidin-7-one]
patients requiring a dose interruption [1]: 71%
patients requiring a dose reduction [1]: 35%
T1/2 [2]: roughly 26.7 hours
